Measurements as given in patent US11319318B2, “Pyridinones and isoquinolinones as inhibitors of the bromodomain BRD9” (Boehringer Ingelheim International GmbH, priority 2015, dated 2022).
pIC50: −log10 of the molar value.

What follows are molecules tested against T1, bromodomain of BRD9 (GST-BRD9 aa 130-259) / H3 K9/14/18/23Ac(1-28) peptide (Homo sapiens, UniProt Q9H8M2) (assay: BRD9-H3 tetra-acetylated Peptide Inhibition AlphaScreen).
T1 construct: The protein corresponding to amino acids 130-259 that contains the bromodomain of BRD9; made in house; host or cells: E. coli
T1 sequence (Q9H8M2 130-259): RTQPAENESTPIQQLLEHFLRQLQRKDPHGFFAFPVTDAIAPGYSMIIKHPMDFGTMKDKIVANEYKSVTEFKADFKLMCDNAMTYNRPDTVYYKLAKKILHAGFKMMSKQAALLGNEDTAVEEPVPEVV
Assay type: binding

Compound	pIC50
Cc1cc(-c2ccc([C@H](C)N3CCCCC3)cc2)cn(C)c1=O [Compound I-3]	6.80
Cc1cc(-c2ccc([C@@H](C)N3CCCCC3)cc2)cn(C)c1=O [Compound I-4]	6.76
Cc1cc(-c2ccc(C(C)N3CCCCC3)cc2)cn(C)c1=O (stereo not drawn) [Compound I-6]	6.50
Cc1cc(-c2ccc(S(=O)(=O)N(C)C)cc2)cn(C)c1=O [Compound I-8]	6.01
Cc1cc(-c2ccc(C(C)N3CCOCC3)cc2)cn(C)c1=O (stereo not drawn) [Compound I-10]	5.97
CNS(=O)(=O)c1ccc(-c2cc(C)c(=O)n(C)c2)cc1 [Compound I-12]	5.81
Cc1cc(-c2ccc(S(=O)(=O)C(C)C)cc2)cn(C)c1=O [Compound I-13]	5.80
Cc1cc(-c2ccc(CN3CCN(C)CC3)cc2)c(C)n(C)c1=O [Compound I-21]	5.77
Cc1c(-c2ccc(C(=O)N3CCNCC3)cc2)cc(I)c(=O)n1C [Compound I-22]	6.63
Cc1cc(-c2cccc(NS(C)(=O)=O)c2)cn(C)c1=O [Compound I-31, N-[3-(1,5-Dimethyl-6-oxo-1,6-dihydro-pyridin-3-yl)-phenyl]-methanesulfonamide]	5.91
COc1cc(S(=O)(=O)NCCN(C)C)c(OC)cc1-c1cc(C)c(=O)n(C)c1 [Compound I-57]	6.88
Cc1cc(-c2ccc(S(=O)(=O)N3CCNCC3)cc2)cn(C)c1=O [Compound I-64]	6.68
Cc1cc(-c2cc(C)c(=O)n(C)c2)ccc1S(=O)(=O)NCCN(C)C [Compound I-68]	6.65
Cc1cc(-c2ccc(C(=O)C3CCNCC3)cc2)cn(C)c1=O [Compound I-73]	6.44
Cc1cc(-c2ccc(C3(N4CCN(C)CC4)CC3)cc2)cn(C)c1=O [Compound I-95]	5.92
COc1cc(-c2cn(C)c(=O)c(C)c2C)cc(OC)c1CN1CC(O)C1 [Compound I-103]	7.43
COc1cc(-c2cn(C)c(=O)c(C)c2C)c(OC)cc1CN1CC(O)C1 [Compound I-104]	7.41

Compound	pIC50
Cc1c(-c2ccc3c(c2)CNC3)cn(C)c(=O)c1C [Compound I-106]	6.99
COCc1c(OC)cc(-c2cn(C)c(=O)c(C)c2C)cc1OC [Compound I-107]	6.86
COc1cc(S(=O)(=O)N(C)CCN(C)C)c(OC)cc1-c1cn(C)c(=O)c(C)c1C [Compound I-110]	6.71
COc1cc(-c2cn(C)c(=O)c(C)c2C)ccc1C1(N2CCN(C)CC2)CC1 [Compound I-111]	6.65
Cc1cc(-c2cn(C)c(=O)c(C)c2C)ccc1C1(N2CCN(C)CC2)CC1 [Compound I-112]	6.49
Cc1c(-c2ccc(C(=O)C3CCNCC3)cc2)cn(C)c(=O)c1C [Compound I-115]	6.13
Cc1c(-c2ccc3c(c2)CCNC3)cn(C)c(=O)c1C [Compound I-116]	6.13
Cc1cc(-c2cn(C)c(=O)c(C)c2C)ccc1C(=O)N1CCN(C)CC1 [Compound I-117]	5.85
COc1cc(-c2cc(C)c(=O)n(C)c2C)cc(OC)c1CN1CC(O)C1 [Compound I-118]	8.00
COc1cc(-c2cc(C)c(=O)n(C)c2C)ccc1C1(N(C)C)CCC1 [Compound I-121]	6.79
COc1cc(-c2cc(C)c(=O)n(C)c2C)ccc1C1(N(C)C)CC1 [Compound I-122]	6.94
COc1cc(-c2cc(C)c(=O)n(C)c2C)cc(OC)c1CN1CCNCC1 [Compound I-124]	6.84
COc1cc(S(=O)(=O)N(C)CCN(C)C)c(OC)cc1-c1cc(C)c(=O)n(C)c1C [Compound I-125]	6.78
Cc1cc(-c2ccc3c(c2)CNC3)c(C)n(C)c1=O [Compound I-126]	6.78
Cc1cc(-c2ccc(C(=O)C3CCNCC3)cc2)c(C)n(C)c1=O [Compound I-129]	6.55
COCc1c(OC)cc(-c2cc(C)c(=O)n(C)c2C)cc1OC [Compound I-130]	6.52

Next, values leading:

pIC50	Compound
6.98	Cc1cc(-c2ccc([C@@H](C)N3CCCC3)cc2)cn(C)c1=O [Compound I-1, 1,3-Dimethyl-5-[4-((R)-1-pyrrolidin-1-yl-ethyl)-phenyl]-1H-pyridin-2-one]
6.84	Cc1cc(-c2ccc([C@H](C)N3CCCC3)cc2)cn(C)c1=O [Compound I-2, 1,3-dimethyl-5-[4-((S)-1-pyrrolidin-1-yl-ethyl)-phenyl]-1H-pyridin-2-one]
6.86	Cc1cc(-c2ccc(C(C)N3CCCC3)cc2)cn(C)c1=O (stereo not drawn) [Compound I-5]
6.49	Cc1cc(-c2ccc(S(=O)(=O)NCCN(C)C)c(OC(F)(F)F)c2)cn(C)c1=O [Compound I-7]
5.84	Cc1cc(-c2ccc(C(C)N(C)C)cc2)cn(C)c1=O (stereo not drawn) [Compound I-11]
5.60	Cc1cc(-c2cccc(CN(C)C)c2)cn(C)c1=O [Compound I-17]
7.28	COc1cc(-c2cc(C)c(=O)n(C)c2)ccc1CN1CC(O)C1 [Compound I-47, 5-[4-(3-Hydroxy-azetidin-1-ylmethyl)-3-methoxy-phenyl]-1,3-dimethyl-1H-pyridin-2-one]
7.19	Cc1cc(-c2ccc3c(c2)CNC3)cn(C)c1=O [Compound I-49, 5-(2,3-dihydro-1H-isoindol-5-yl)-1,3-dimethyl-1H-pyridin-2-one]
7.13	COc1cc(-c2cc(C)c(=O)n(C)c2)ccc1CN1CC(OC)C1 [Compound I-50]
7.11	COc1cc(-c2cc(C)c(=O)n(C)c2)ccc1CN1C[C@@H]2CC1CN2C [Compound I-51]
7.06	COc1cc(-c2cc(C)c(=O)n(C)c2)cc(OC)c1CN1CCNCC1 [Compound I-52]
7.01	COc1cc(-c2cc(C)c(=O)n(C)c2)ccc1C1(N(C)C)CC1 [Compound I-53]
6.92	COc1cc(-c2cc(C)c(=O)n(C)c2)ccc1CN1C[C@@H]2CC1CN2 [Compound I-54]
6.91	COc1cc(-c2cc(C)c(=O)n(C)c2)c(OC)cc1CN1CC(O)C1 [Compound I-55]
6.88	COc1cc(S(=O)(=O)N2CC(O)C2)c(OC)cc1-c1cc(C)c(=O)n(C)c1 [Compound I-56]
6.86	Cc1cc(-c2ccc(C3(N(C)C)CC3)cc2)cn(C)c1=O [Compound I-58]
6.85	COCc1c(OC)cc(-c2cc(C)c(=O)n(C)c2)cc1OC [Compound I-59]
6.84	Cc1cc(-c2cc(C)c(=O)n(C)c2)ccc1C1(N(C)C)CC1 [Compound I-60]
6.75	CCC(CC)(c1ccc(-c2cc(C)c(=O)n(C)c2)cc1OC)N1CCN(C)CC1 [Compound I-61]
6.74	COc1cc(-c2cc(C)c(=O)n(C)c2)c(OC)cc1CN1CCN(C)CC1 [Compound I-62]
6.69	COc1cc(-c2cc(C)c(=O)n(C)c2)cc(OC)c1CN1CCN(C)CC1 [Compound I-63]
6.67	COc1cc(-c2cc(C)c(=O)n(C)c2)ccc1S(=O)(=O)NCCN(C)C [Compound I-65]
6.67	Cc1cc(-c2ccc(C3(N(C)C)CCC3)cc2)cn(C)c1=O [Compound I-66]
6.67	COc1cc(-c2cc(C)c(=O)n(C)c2)ccc1C1(N2CCN(C)CC2)CC1 [Compound I-67]

pIC50	Compound
6.63	COc1cc(S(=O)(=O)N2CCN(C)CC2)c(OC)cc1-c1cc(C)c(=O)n(C)c1 [Compound I-70]
6.54	CCc1cc(-c2cc(C)c(=O)n(C)c2)cc(OC)c1C(O)CC (stereo not drawn) [Compound I-71]
6.47	COc1cc(-c2cc(C)c(=O)n(C)c2)ccc1CN1C[C@H]2C[C@@H]1CN2C [Compound I-72]
6.43	COc1cc(-c2cc(C)c(=O)n(C)c2)ccc1S(=O)(=O)N1CC(O)C1 [Compound I-74]
6.41	Cc1cc(-c2cc(C)c(=O)n(C)c2)ccc1S(=O)(=O)N1CC(O)C1 [Compound I-75]
6.39	COc1cc(-c2cc(C)c(=O)n(C)c2)ccc1C(=O)N1C[C@@H]2CC1CN2 [Compound I-76]
6.38	COc1cc(-c2cc(C)c(=O)n(C)c2)ccc1C(=O)N1C[C@@H]2CC1CN2C [Compound I-77]
6.30	CCOc1cc(-c2cc(C)c(=O)n(C)c2)ccc1CN1CC[N+](C)(CC)CC1 [Compound I-81]
6.29	COc1cc(-c2cc(C)c(=O)n(C)c2)ccc1S(=O)(=O)N1CCN(C)CC1 [Compound I-82]
6.28	Cc1cc(-c2cc(C)c(=O)n(C)c2)ccc1S(=O)(=O)N1CCN(C)CC1 [Compound I-83]
6.21	Cc1cc(-c2cc(C)c(=O)n(C)c2)ccc1C1(N2CCN(C)CC2)CC1 [Compound I-84]
6.15	Cc1cc(-c2ccc3c(c2)CCNC3)cn(C)c1=O [Compound I-85]
6.11	COc1cc(-c2cc(C)c(=O)n(C)c2)ccc1CN1CCN(C)C(C)C1 (stereo not drawn) [Compound I-86]
6.07	Cc1cc(-c2cccc(CN)c2)cn(C)c1=O [Compound I-87]
6.02	Cc1cc(-c2ccc3c(c2)CNCC3)cn(C)c1=O [Compound I-90]
5.98	Cc1cc(-c2cc(C)c(=O)n(C)c2)ccc1CN [Compound I-92]
5.90	COc1cc(-c2cc(C)c(=O)n(C)c2)ccc1CN [Compound I-96]
5.63	Cc1cc(-c2cccc(C3CCCCN3)c2)cn(C)c1=O (stereo not drawn) [Compound I-98]
6.82	COc1cc(-c2cn(C)c(=O)c(C)c2C)ccc1CN1C[C@@H]2CC1CN2C [Compound I-108]
6.71	COc1cc(-c2cn(C)c(=O)c(C)c2C)ccc1CN1C[C@@H]2CC1CN2 [Compound I-109]
6.46	COc1cc(-c2cn(C)c(=O)c(C)c2C)ccc1CN1C[C@H]2C[C@@H]1CN2C [Compound I-113]
7.26	COc1cc(-c2cc(C)c(=O)n(C)c2C)ccc1CN1CC(O)C1 [Compound I-119]
6.70	COc1cc(-c2cc(C)c(=O)n(C)c2C)ccc1CN1C[C@@H]2CC1CN2 [Compound I-127]
6.65	COc1cc(-c2cc(C)c(=O)n(C)c2C)ccc1CN1C[C@H]2C[C@@H]1CN2C [Compound I-128]
